Test results reported in publication PMC5874533 (Scientia Pharmaceutica, 2018).

Key:
[1] = Solubility study in buffer solutions pH 1.2-7.5 (shake flask, HPLC); assay type: physicochemical; conditions: for solubility at 48 h: hydrochloric acid/sodium chloride buffer pH 1.2, 37 °C, pH 1.2, 37 °C
Procedure: Solubility was investigated in four different buffer systems at two temperatures each.
Preparation of buffer solutions:
pH 1.2: 425.0 mL of 0.2 M hydrochloric acid solution, and 250.0 mL 0.2 M sodium chloride solution diluted to 1000 mL with water;
pH 6.8: 250.0 mL of 0.2 M monobasic potassium phosphate solution, 112.0 mL of 0.1 M sodium hydroxide solution diluted to 1000 mL with water;
pH 7.5: 250.0 mL of 0.2 M monobasic potassium phosphate solution, 112.0 mL of 0.1 M sodium hydroxide solution diluted to 1000 mL with water and adjusted to pH 7.5 with 0.1 M sodium hydroxide solution and.
Flow rate of the mobile phase: 0.5 mL min^−1 and a column temperature of 30 °C. The samples were injected at a volume of 10 µL with detection at wavelength 225 nm.
Preparation of the final test solution: Following stirring, the flask was allowed to deposit the excess amount of substance for 5 min. Thereafter, 1.0 mL of the supernatant was transferred into a 50 mL volumetric flask, dissolved in mobile phase, and adjusted to 50.0 mL with the same solvent. For the study at 25 °C, 5.0 mL of this solution was diluted to 20.0 mL with mobile phase. For the study at 37 °C, 5.0 mL of the solution was diluted to 50.0 mL with mobile phase.
10.0 mL of this solution was dissolved to 100.0 mL with mobile phase.

[2] = Caco-2 monolayer transport (permeability) study; assay type: in vitro ADME, human; conditions: human, Caco-2, pH 7.4, Caco-2, donor concentrations 10–100 μM, KRB pH 7.4; read-out: Permeability coefficient (Papp), apical to basolateral
Procedure: (§1) Cell culture. For the maintenance culture, Caco-2 cells were incubated at 37 °C, 5% CO2, and 90% relative humidity in 75 cm^2 culture flasks with supplemented Dulbecco's Modified Eagle's Medium (DMEM). The cells were passaged once a week using trypsin/ethylenediaminetetraacetic acid (EDTA) solution. Approximately 10^6 cells were seeded per flask. The culture medium was changed three times a week. For the transport studies, the Caco-2 cells were inoculated at a density of 60,000 cells/cm^2 on Transwell filter inserts and placed into 12-well flat-bottom cluster plates. The inserts (apical compartments) were supplied with 0.5 mL and the outer wells (basal compartments) with 1.5 mL of DMEM culture medium. The cells for the present transport study were cultured at 37 °C, 5% CO2 and 90% relative humidity in DMEM culture medium for 18 days until they formed confluent monolayers (31 passages). The culture medium was replaced every 2-3 days. […] Transport studies. […] All tests were carried out in triplicate. […] Testing of integrity of monolayers. Each batch of monolayer Caco-2 cells was inoculated and cultured under the same conditions on Transwell filter inserts in parallel. Qualification of intactness of the Caco-2 monolayer batches prior to the transport studies was carried out in triplicate for each transport condition using the selected transport markers fluorescein, [^3H]-propranolol and rhodamine 123. […] Mobile phase A consisted of 0.1% formic acid in water and mobile phase B of 0.1% formic acid in acetonitrile. […] The samples were kept at 10 °C and injected at a volume of 20 μL. The triple quad mass spectrometer system (Waters) was used in the positive (ESI^+) electrospray mode at 2.63 kV. […] Fluorescein and rhodamine 123 samples (100 μL) were determined by fluorescence reading. The samples were collected in 96 well microtiter plates. The fluorescence intensity was recorded by exciting the sample with light at 485 nm and measuring the emitted fluorescence at 535 nm. The fluorescence emission of a blank sample (Krebs-Ringer bicarbonate buffer (KRB) solution) was used as baseline.

[3] = system: Caco-2 cell monolayers; assay: Caco-2 monolayer transport (permeability) study; assay type: in vitro ADME, human; conditions: Caco-2, 10–100 μM
Procedure: as §1

[4] = system: Caco-2 cells; assay: Tolerability of enisamium iodide to Caco-2 cells (TEER); assay type: cell-based, human; conditions: up to 100 μM, after 2 h of incubation
Procedure: For this purpose, the cells were incubated with the highest dose supposed for the permeability studies (100 μM). After an incubation period of 120 min at 37 °C the TEER was checked to assess the integrity of the cell monolayers. […] All experiments were performed in triplicate. As a positive control, sodium dodecyl sulfate was used in this experiment.
The TEER was calculated according to TEER= Rc(A)=(Rc+f−Rf)A (Ω·cm^2). where Rc(A) is the electrical resistance of the monolayer with the area A (Ω cm^2); Rc+f is the electrical resistance of the monolayer including the filter (Ω); Rf is the electrical resistance of the filter without cells (Ω); and A is the area of the monolayer (cm^2).

[5] = molecular target: P-glycoprotein (P-gp) (Homo sapiens, UniProt P08183)
P-glycoprotein (P-gp), sequence (P08183 whole entry): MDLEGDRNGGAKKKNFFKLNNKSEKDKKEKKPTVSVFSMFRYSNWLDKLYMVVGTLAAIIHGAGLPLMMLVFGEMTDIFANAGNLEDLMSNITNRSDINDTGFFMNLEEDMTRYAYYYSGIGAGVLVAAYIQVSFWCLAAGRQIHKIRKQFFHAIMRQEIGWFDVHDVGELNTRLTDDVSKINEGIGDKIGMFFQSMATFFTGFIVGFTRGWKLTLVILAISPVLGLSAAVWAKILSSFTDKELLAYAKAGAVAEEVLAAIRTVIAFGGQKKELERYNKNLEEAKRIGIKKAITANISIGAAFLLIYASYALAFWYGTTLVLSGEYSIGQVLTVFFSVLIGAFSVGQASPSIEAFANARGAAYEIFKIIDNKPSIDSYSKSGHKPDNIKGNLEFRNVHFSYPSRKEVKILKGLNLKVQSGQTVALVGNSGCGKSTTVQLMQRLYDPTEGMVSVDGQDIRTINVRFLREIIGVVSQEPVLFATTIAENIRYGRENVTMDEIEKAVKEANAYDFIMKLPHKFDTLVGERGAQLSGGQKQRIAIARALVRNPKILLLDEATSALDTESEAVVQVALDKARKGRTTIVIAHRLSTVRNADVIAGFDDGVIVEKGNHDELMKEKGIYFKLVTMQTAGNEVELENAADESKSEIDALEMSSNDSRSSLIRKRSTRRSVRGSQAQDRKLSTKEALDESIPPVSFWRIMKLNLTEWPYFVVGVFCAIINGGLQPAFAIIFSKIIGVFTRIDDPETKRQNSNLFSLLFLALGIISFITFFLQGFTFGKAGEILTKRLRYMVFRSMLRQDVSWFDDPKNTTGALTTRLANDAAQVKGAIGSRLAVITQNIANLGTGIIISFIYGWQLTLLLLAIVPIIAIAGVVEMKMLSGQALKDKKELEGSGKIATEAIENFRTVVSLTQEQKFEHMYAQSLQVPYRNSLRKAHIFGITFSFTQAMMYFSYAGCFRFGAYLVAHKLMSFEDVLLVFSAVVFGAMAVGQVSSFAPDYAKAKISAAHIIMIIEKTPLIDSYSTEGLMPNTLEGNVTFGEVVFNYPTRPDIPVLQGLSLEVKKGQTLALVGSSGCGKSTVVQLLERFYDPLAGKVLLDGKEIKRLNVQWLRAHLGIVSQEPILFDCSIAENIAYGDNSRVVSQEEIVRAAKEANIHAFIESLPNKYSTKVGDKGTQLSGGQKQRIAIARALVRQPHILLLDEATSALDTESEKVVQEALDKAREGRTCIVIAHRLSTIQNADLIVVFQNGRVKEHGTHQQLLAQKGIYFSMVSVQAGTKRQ
Procedure: Transport studies. Caco-2 monolayers were rinsed twice with KRB to remove the cell culture medium. Fresh KRB (pH 7.4) was filled into the acceptor compartment and the transport solution (test substance in KRB at pH 7.4) into the donor compartment. The cells were equilibrated for 30 min in a CO2 incubator at 37 °C and stayed there between the sample collection points. After pre-incubation, samples were taken from the donor and acceptor compartment, respectively. The concentration of test compound in the donor compartment was defined as initial donor concentration. At 0 min, 30 min, 60 min, 90 min and 120 min 100 µL samples were drawn from the acceptor compartment. The amount of solution removed was replaced by fresh, pre-warmed KRB. At the final pull point, samples were retrieved from the donor compartment, too. All tests were carried out in triplicate. For studies including the P-glycoprotein (P-gp) inhibitor cyclosporin A and the marker compound for P-gp transport inhibitors, [^3H]-digoxin the substances were applied to both the donor and acceptor compartment in the same concentration. […]
[^3H]-propranolol and [^3H]-digoxin were quantified by liquid scintillation counting. […] After an equilibration period of at least 1 h radiation was measured for 2 min per well in a scintillation counter. The recorded counts in a blank sample were subtracted from the value of each test sample.
Data of the permeability study were calculated using MS Excel (Microsoft, Redmond, WA, USA). Apparent permeability coefficient (Papp) was calculated according to the following equation: Papp=ΔQ 1 1/Δt m0 A VD(cm·s^−1) where ΔQ/Δt is the permeability rate (steady state transport rate) obtained from the profile of the transported mass or radioactivity of substrate versus time (µg or dpm·s^−1). Calculated by the linear regression of time and concentration. A is the area of the exposed cell monolayer (cm^2), m0 is the initial mass or radioactivity of test compound in the donor compartment (µg or dpm), and VD is the buffer volume of donor compartment. […]

SMILES: C[n+]1ccc(C(=O)NCc2ccccc2)cc1.[I-] [enisamium iodide, 4-(benzylcarbamoyl)-1-methylpyridinium iodide]
- Solubility classification according to the BCS [1]: highly soluble
- Amount that can be dissolved in 250 mL of buffer solution ([1]; 37 °C): at least 31.8 g
- solubility at 96 h ([1]; four buffer solutions (pH 1.2, 4.5, 6.8, 7.5), 25 °C, pH 1.2, aqueous buffer, thermodynamic from solid, four buffer solutions from pH 1.2 to 7.5, 25 °C): ~60 mg/mL
- solubility ([1]; four buffer solutions (pH 1.2, 4.5, 6.8, 7.5), 37 °C, pH 1.2, aqueous buffer, thermodynamic from solid, four buffer solutions from pH 1.2 to 7.5, 37 °C, depending on the pH): 130 to 150 mg/mL
- solubility at 96 h ([1]; hydrochloric acid/sodium chloride buffer pH 1.2, 25 °C, pH 1.2, simulated gastric fluid, thermodynamic from solid, pH 1.2, 25 °C, batch 170215): 63.2 mg/mL
- solubility at 96 h ([1]; hydrochloric acid/sodium chloride buffer pH 1.2, 25 °C, pH 1.2, simulated gastric fluid, thermodynamic from solid, pH 1.2, 25 °C, batch 180215): 63.5 mg/mL
- solubility at 96 h ([1]; hydrochloric acid/sodium chloride buffer pH 1.2, 25 °C, pH 1.2, simulated gastric fluid, thermodynamic from solid, pH 1.2, 25 °C, batch 190315): 63.2 mg/mL
- solubility at 96 h ([1]; hydrochloric acid/sodium chloride buffer pH 1.2, 25 °C, pH 1.2, simulated gastric fluid, thermodynamic from solid, pH 1.2, 25 °C, mean of three batches): 63.3 mg/mL
- solubility at 48 h ([1]; pH 1.2, simulated gastric fluid, thermodynamic from solid, batch 170215): 152 mg/mL
- solubility at 48 h ([1]; pH 1.2, simulated gastric fluid, thermodynamic from solid, batch 180215): 155 mg/mL
- solubility at 48 h ([1]; pH 1.2, simulated gastric fluid, thermodynamic from solid, batch 190315): 155 mg/mL
- solubility at 48 h ([1]; pH 1.2, simulated gastric fluid, thermodynamic from solid, mean of three batches): 154 mg/mL
- solubility at 96 h ([1]; potassium phosphate buffer pH 6.8, 25 °C, pH 6.8, aqueous buffer, thermodynamic from solid, pH 6.8, 25 °C, batch 170215): 60.8 mg/mL
- solubility at 96 h ([1]; potassium phosphate buffer pH 6.8, 25 °C, pH 6.8, aqueous buffer, thermodynamic from solid, pH 6.8, 25 °C, batch 180215): 59.5 mg/mL
- solubility at 96 h ([1]; potassium phosphate buffer pH 6.8, 25 °C, pH 6.8, aqueous buffer, thermodynamic from solid, pH 6.8, 25 °C, batch 190315): 60.2 mg/mL
- solubility at 96 h ([1]; potassium phosphate buffer pH 6.8, 25 °C, pH 6.8, aqueous buffer, thermodynamic from solid, pH 6.8, 25 °C, mean of three batches): 60.2 mg/mL
- solubility at 96 h ([1]; potassium phosphate buffer pH 6.8, 37 °C, pH 6.8, aqueous buffer, thermodynamic from solid, pH 6.8, 37 °C, batch 170215): 131 mg/mL
- solubility at 96 h ([1]; potassium phosphate buffer pH 6.8, 37 °C, pH 6.8, aqueous buffer, thermodynamic from solid, pH 6.8, 37 °C, batch 180215): 128 mg/mL
- solubility at 96 h ([1]; potassium phosphate buffer pH 6.8, 37 °C, pH 6.8, aqueous buffer, thermodynamic from solid, pH 6.8, 37 °C, batch 190315): 131 mg/mL
- solubility at 96 h ([1]; potassium phosphate buffer pH 6.8, 37 °C, pH 6.8, aqueous buffer, thermodynamic from solid, pH 6.8, 37 °C, mean of three batches): 130 mg/mL
- solubility at 96 h ([1]; potassium phosphate buffer pH 7.5, 25 °C, pH 7.5, aqueous buffer, thermodynamic from solid, pH 7.5, 25 °C, batch 170215): 58.9 mg/mL
- solubility at 96 h ([1]; potassium phosphate buffer pH 7.5, 25 °C, pH 7.5, aqueous buffer, thermodynamic from solid, pH 7.5, 25 °C, batch 180215): 59.2 mg/mL
- solubility at 96 h ([1]; potassium phosphate buffer pH 7.5, 25 °C, pH 7.5, aqueous buffer, thermodynamic from solid, pH 7.5, 25 °C, batch 190315): 59.1 mg/mL
- solubility at 96 h ([1]; potassium phosphate buffer pH 7.5, 25 °C, pH 7.5, aqueous buffer, thermodynamic from solid, pH 7.5, 25 °C, mean of three batches): 59.1 mg/mL
- solubility at 96 h ([1]; potassium phosphate buffer pH 7.5, 37 °C, pH 7.5, aqueous buffer, thermodynamic from solid, pH 7.5, 37 °C, batch 170215): 127 mg/mL
- solubility at 96 h ([1]; potassium phosphate buffer pH 7.5, 37 °C, pH 7.5, aqueous buffer, thermodynamic from solid, pH 7.5, 37 °C, batch 180215): 130 mg/mL
- solubility at 96 h ([1]; potassium phosphate buffer pH 7.5, 37 °C, pH 7.5, aqueous buffer, thermodynamic from solid, pH 7.5, 37 °C, batch 190315): 126 mg/mL
- solubility at 96 h ([1]; potassium phosphate buffer pH 7.5, 37 °C, pH 7.5, aqueous buffer, thermodynamic from solid, pH 7.5, 37 °C, mean of three batches): 128 mg/mL
- solubility at 96 h ([1]; sodium acetate/acetic acid buffer pH 4.5, 25 °C, pH 4.5, aqueous buffer, thermodynamic from solid, pH 4.5, 25 °C, batch 170215): 59.7 mg/mL
- solubility at 96 h ([1]; sodium acetate/acetic acid buffer pH 4.5, 25 °C, pH 4.5, aqueous buffer, thermodynamic from solid, pH 4.5, 25 °C, batch 180215): 59.3 mg/mL
- solubility at 96 h ([1]; sodium acetate/acetic acid buffer pH 4.5, 25 °C, pH 4.5, aqueous buffer, thermodynamic from solid, pH 4.5, 25 °C, batch 190315): 60.9 mg/mL
- solubility at 96 h ([1]; sodium acetate/acetic acid buffer pH 4.5, 25 °C, pH 4.5, aqueous buffer, thermodynamic from solid, pH 4.5, 25 °C, mean of three batches): 60 mg/mL
- solubility at 96 h ([1]; sodium acetate/acetic acid buffer pH 4.5, 37 °C, pH 4.5, aqueous buffer, thermodynamic from solid, pH 4.5, 37 °C, batch 170215): 132 mg/mL
- solubility at 96 h ([1]; sodium acetate/acetic acid buffer pH 4.5, 37 °C, pH 4.5, aqueous buffer, thermodynamic from solid, pH 4.5, 37 °C, batch 180215): 133 mg/mL
- solubility at 96 h ([1]; sodium acetate/acetic acid buffer pH 4.5, 37 °C, pH 4.5, aqueous buffer, thermodynamic from solid, pH 4.5, 37 °C, batch 190315): 136 mg/mL
- solubility at 96 h ([1]; sodium acetate/acetic acid buffer pH 4.5, 37 °C, pH 4.5, aqueous buffer, thermodynamic from solid, pH 4.5, 37 °C, mean of three batches): 134 mg/mL
- Papp A→B at 120 min [2]: 0.2 to 0.3 ×10⁻⁶ cm/s
- Evidence for active transport [3]: no evidence for active transport
- Permeability classification [3]: low in vitro permeability
- TEER relative to TEER measured in medium without test substance [4]: about 100%
- P-gp-mediated transport of the substance ([5]; bi-directional transport 10 μM with/without cyclosporin A 12 μmol·L^−1): not indicative for a P-gp-mediated transport
- Fold lower permeation coefficient in ab direction with cyclosporin A compared to without CsA ([5]; human, Caco-2, 120 min, 10 μM, pH 7.4): more than 3 times
